Patent US20230143604A1, “QW DOSING OF GIP RECEPTOR AGONIST PEPTIDE COMPOUNDS AND USES THEREOF” (TAKEDA PHARMACEUTICAL COMPANY LIMITED, priority 2020, published 2023)
Starred links: 1 amine or outer side, 2 acyl side, 3 side chain; linkers in the order of their positions; H or OH if unused. Non-standard residues stand in square brackets, D forms with d. Residues, ends and D or L forms follow the SMILES beside them. Groups on a side chain read outwards from the residue. *: point of attachment. C18 diacid = O=C(O)CCCCCCCCCCCCCCCCC(=O)*; C17 diacid = O=C(O)CCCCCCCCCCCCCCCC(=O)*; γGlu = O=C(O)[C@H](CCC(=O)[*:2])N[*:1]; NMeY = CN[C@@H](Cc1ccc(O)cc1)C(=O)O; AEEA = NCCOCCOCC(=O)O; Aib = CC(C)(N)C(=O)O

Test: Solubility in phosphate buffer pH 7.4
Method in brief: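 3 mg of peptide treated with 100 μL portions of 200 mM phosphate buffer pH 7.4, sonicating/vortexing up to 1 min, with further buffer added until fully dissolved. Solubility then quantified by HPLC.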

[1] = pH 7.4, aqueous buffer, pH 7.4 Phosphate Buffer - Solubility, 200 mM Phosphate buffer pH 7.4

Compound | solubility [1] [mg/mL] | solubility (pH 7.4) [mg/mL] | solubility (pH 7.4, aqueous buffer) [mg/mL]
CC[C@H](C)[C@H](NC(=O)[C@H](Cc1ccccc1)NC(=O)[C@@H](NC(=O)CNC(=O)[C@H](CCC(=O)O)NC(=O)C(C)(C)NC(=O)[C@H](Cc1ccc(O)cc1)NC)[C@@H](C)O)C(=O)N[C@@H](CO)C(=O)N[C@@H](CC(=O)O)C(=O)N[C@@H](Cc1ccc(O)cc1)C(=O)N[C@@H](CO)C(=O)N[C@H](C(=O)NC(C)(C)C(=O)N[C@@H](CCCCNC(=O)CNC(=O)CNC(=O)CNC(=O)CNC(=O)CNC(=O)CCCCCCCCCCCCCCCCC(=O)O)C(=O)N[C@@H](CC(=O)O)C(=O)N[C@@H](CCCNC(=N)N)C(=O)NC(C)(C)C(=O)N[C@@H](C)C(=O)N[C@@H](CCC(N)=O)C(=O)NC(C)(C)C(=O)N[C@@H](CC(=O)O)C(=O)N[C@@H](Cc1ccccc1)C(=O)N[C@H](C(=O)N[C@@H](CC(N)=O)C(=O)N[C@@H](Cc1c[nH]c2ccccc12)C(=O)N[C@@H](CC(C)C)C(=O)N[C@@H](CC(C)C)C(=O)N[C@@H](C)C(=O)N[C@@H](CCC(N)=O)C(=O)N[C@@H](CCCNC(=N)N)C(=O)N1CCC[C@H]1C(=O)N[C@@H](CO)C(=O)N[C@@H](CO)C(=O)NCC(=O)N[C@@H](C)C(=O)N1CCC[C@H]1C(=O)N1CCC[C@H]1C(=O)N1CCC[C@H]1C(=O)N[C@@H](CO)C(N)=O)C(C)C)[C@@H](C)CC [Compound 276] | < 15 | – | –
CC[C@H](C)[C@H](NC(=O)[C@H](Cc1ccccc1)NC(=O)[C@@H](NC(=O)CNC(=O)[C@H](CCC(=O)O)NC(=O)C(C)(C)NC(=O)[C@@H](N)Cc1ccc(O)cc1)[C@@H](C)O)C(=O)N[C@@H](CO)C(=O)N[C@@H](CC(=O)O)C(=O)N[C@@H](Cc1ccc(O)cc1)C(=O)N[C@@H](CO)C(=O)N[C@H](C(=O)NC(C)(C)C(=O)N[C@@H](CC(C)C)C(=O)N[C@@H](CC(=O)O)C(=O)N[C@@H](CCCCN)C(=O)N[C@@H](C)C(=O)N[C@@H](CCCCNC(=O)COCCOCCNC(=O)COCCOCCNC(=O)CC[C@H](NC(=O)CCCCCCCCCCCCCCCCC(=O)O)C(=O)O)C(=O)N[C@@H](CCC(N)=O)C(=O)N[C@@H](CCC(N)=O)C(=O)N[C@@H](CC(=O)O)C(=O)N[C@@H](Cc1ccccc1)C(=O)N[C@H](C(=O)N[C@@H](CCC(=O)O)C(=O)N[C@@H](Cc1c[nH]c2ccccc12)C(=O)N[C@@H](CC(C)C)C(=O)N[C@@H](CC(C)C)C(=O)N[C@@H](C)C(=O)N[C@@H](CCC(N)=O)C(=O)N[C@@H](CCCNC(=N)N)C(=O)NCC(=O)O)C(C)C)[C@@H](C)CC [Compound 169] (H-Y[Aib]EGTFISDYSI[Aib]LDKAK([AEEA-AEEA-γGlu-C18 diacid])QQDFVEWLLAQRG-OH) | – | ≥ 15 | ≥ 30
CC[C@H](C)[C@H](NC(=O)[C@H](CO)NC(=O)[C@H](Cc1ccc(O)cc1)NC(=O)[C@H](CC(=O)O)NC(=O)[C@H](CO)NC(=O)[C@@H](NC(=O)[C@H](Cc1ccccc1)NC(=O)[C@@H](NC(=O)CNC(=O)[C@H](CCC(=O)O)NC(=O)C(C)(C)NC(=O)[C@H](Cc1ccc(O)cc1)NC)[C@@H](C)O)[C@@H](C)CC)C(=O)N[C@@H](C)C(=O)N[C@@H](CC(C)C)C(=O)N[C@@H](CC(=O)O)C(=O)N[C@@H](CCCNC(=N)N)C(=O)N[C@H](C(=O)N[C@@H](Cc1c[nH]cn1)C(=O)N[C@@H](CCC(N)=O)C(=O)N[C@@H](CCC(N)=O)C(=O)N[C@@H](CC(N)=O)C(=O)N[C@@H](Cc1ccccc1)C(=O)N[C@H](C(=O)N[C@@H](CC(N)=O)C(=O)N[C@@H](Cc1c[nH]c2ccccc12)C(=O)N[C@@H](CC(C)C)C(=O)N[C@@H](CC(C)C)C(=O)N[C@@H](C)C(=O)N[C@@H](CCC(N)=O)C(=O)N[C@@H](CCCCNC(=O)COCCOCCNC(=O)COCCOCCNC(=O)CC[C@H](NC(=O)CCCCCCCCCCCCCCCCC(=O)O)C(=O)O)C(N)=O)C(C)C)[C@@H](C)CC [Compound 5] (H-[NMeY][Aib]EGTFISDYSIALDRIHQQNFVNWLLAQK([AEEA-AEEA-γGlu-C18 diacid])-NH2) | – | ≥ 15 | ≥ 27
CC[C@H](C)[C@H](NC(=O)[C@H](CO)NC(=O)[C@H](Cc1ccc(O)cc1)NC(=O)[C@H](CC(=O)O)NC(=O)[C@H](CO)NC(=O)[C@@H](NC(=O)[C@H](Cc1ccccc1)NC(=O)[C@@H](NC(=O)CNC(=O)[C@H](CCC(=O)O)NC(=O)C(C)(C)NC(=O)[C@H](Cc1ccc(O)cc1)NC)[C@@H](C)O)[C@@H](C)CC)C(=O)N[C@@H](C)C(=O)N[C@@H](CC(C)C)C(=O)N[C@@H](CC(=O)O)C(=O)N[C@@H](CCCNC(=N)N)C(=O)NC(C)(C)C(=O)N[C@@H](C)C(=O)N[C@@H](CCC(N)=O)C(=O)NC(C)(C)C(=O)N[C@@H](CC(N)=O)C(=O)N[C@@H](Cc1ccccc1)C(=O)N[C@H](C(=O)N[C@@H](CC(N)=O)C(=O)N[C@@H](Cc1c[nH]c2ccccc12)C(=O)N[C@@H](CC(C)C)C(=O)N[C@@H](CC(C)C)C(=O)N[C@@H](C)C(=O)N[C@@H](CCCCNC(=O)COCCOCCNC(=O)COCCOCCNC(=O)CC[C@H](NC(=O)CC[C@H](NC(=O)CCCCCCCCCCCCCCCCC(=O)O)C(=O)O)C(=O)O)C(=O)N[C@@H](CCCNC(=N)N)C(=O)NCC(=O)O)C(C)C [Compound 55] (H-[NMeY][Aib]EGTFISDYSIALDR[Aib]AQ[Aib]NFVNWLLAK([AEEA-AEEA-γGlu-γGlu-C18 diacid])RG-OH) | – | ≥ 15 | ≥ 30
CC[C@H](C)[C@H](NC(=O)[C@H](CO)NC(=O)[C@H](Cc1ccc(O)cc1)NC(=O)[C@H](CC(=O)O)NC(=O)[C@H](CO)NC(=O)[C@@H](NC(=O)[C@H](Cc1ccccc1)NC(=O)[C@@H](NC(=O)CNC(=O)[C@H](CCC(=O)O)NC(=O)C(C)(C)NC(=O)[C@H](Cc1ccc(O)cc1)NC)[C@@H](C)O)[C@@H](C)CC)C(=O)N[C@@H](C)C(=O)N[C@@H](CC(C)C)C(=O)N[C@@H](CC(=O)O)C(=O)N[C@@H](CCCNC(=N)N)C(=O)NC(C)(C)C(=O)N[C@@H](C)C(=O)N[C@@H](CCC(N)=O)C(=O)NC(C)(C)C(=O)N[C@@H](CCCCNC(=O)COCCOCCNC(=O)COCCOCCNC(=O)CC[C@H](NC(=O)CC[C@H](NC(=O)CCCCCCCCCCCCCCCCC(=O)O)C(=O)O)C(=O)O)C(=O)N[C@@H](Cc1ccccc1)C(=O)N[C@H](C(=O)N[C@@H](CC(N)=O)C(=O)N[C@@H](Cc1c[nH]c2ccccc12)C(=O)N[C@@H](CC(C)C)C(=O)N[C@@H](CC(C)C)C(=O)N[C@@H](C)C(=O)N[C@@H](CCC(N)=O)C(=O)N[C@@H](CCCNC(=N)N)C(=O)NCC(=O)NCC(=O)NCC(=O)NCC(=O)N[C@@H](CO)C(N)=O)C(C)C [Compound 21] (H-[NMeY][Aib]EGTFISDYSIALDR[Aib]AQ[Aib]K([AEEA-AEEA-γGlu-γGlu-C18 diacid])FVNWLLAQRGGGGS-NH2) | – | ≥ 15 | ≥ 30
CC[C@H](C)[C@H](NC(=O)[C@H](Cc1ccccc1)NC(=O)[C@@H](NC(=O)CNC(=O)[C@H](CCC(=O)O)NC(=O)C(C)(C)NC(=O)[C@@H](N)Cc1ccc(O)cc1)[C@@H](C)O)C(=O)N[C@@H](CO)C(=O)N[C@@H](CC(=O)O)C(=O)N[C@@H](Cc1ccc(O)cc1)C(=O)N[C@@H](CO)C(=O)N[C@H](C(=O)NC(C)(C)C(=O)N[C@@H](CC(C)C)C(=O)N[C@@H](CC(=O)O)C(=O)N[C@@H](CCCCN)C(=O)N[C@@H](C)C(=O)N[C@@H](C)C(=O)N[C@@H](CCC(N)=O)C(=O)N[C@@H](C)C(=O)N[C@@H](CCCCNC(=O)COCCOCCNC(=O)COCCOCCNC(=O)CC[C@H](NC(=O)CC[C@H](NC(=O)CCCCCCCCCCCCCCCCC(=O)O)C(=O)O)C(=O)O)C(=O)N[C@@H](Cc1ccccc1)C(=O)N[C@H](C(=O)N[C@@H](CCC(=O)O)C(=O)N[C@@H](Cc1c[nH]c2ccccc12)C(=O)N[C@@H](CC(C)C)C(=O)N[C@@H](CC(C)C)C(=O)N[C@@H](C)C(=O)N[C@@H](CCC(N)=O)C(=O)N[C@@H](CCCNC(=N)N)C(=O)NCC(=O)O)C(C)C)[C@@H](C)CC [Compound 168] (H-Y[Aib]EGTFISDYSI[Aib]LDKAAQAK([AEEA-AEEA-γGlu-γGlu-C18 diacid])FVEWLLAQRG-OH) | – | ≥ 15 | ≥ 30
CC[C@H](C)[C@H](NC(=O)[C@H](Cc1ccccc1)NC(=O)[C@@H](NC(=O)CNC(=O)[C@H](CCC(=O)O)NC(=O)C(C)(C)NC(=O)[C@H](Cc1ccc(O)cc1)NC)[C@@H](C)O)C(=O)N[C@@H](CO)C(=O)N[C@@H](CC(=O)O)C(=O)N[C@@H](Cc1ccc(O)cc1)C(=O)N[C@@H](CO)C(=O)N[C@H](C(=O)NC(C)(C)C(=O)N[C@@H](CC(C)C)C(=O)N[C@@H](CC(=O)O)C(=O)N[C@@H](CCCNC(=N)N)C(=O)N[C@@H](CCCCNC(=O)COCCOCCNC(=O)COCCOCCNC(=O)CC[C@H](NC(=O)CC[C@H](NC(=O)CCCCCCCCCCCCCCCC(=O)O)C(=O)O)C(=O)O)C(=O)N[C@@H](C)C(=O)N[C@@H](CCC(N)=O)C(=O)NC(C)(C)C(=O)N[C@@H](CC(N)=O)C(=O)N[C@@H](Cc1ccccc1)C(=O)N[C@H](C(=O)N[C@@H](CC(N)=O)C(=O)N[C@@H](Cc1c[nH]c2ccccc12)C(=O)N[C@@H](CC(C)C)C(=O)N[C@@H](CC(C)C)C(=O)N[C@@H](C)C(=O)N[C@@H](CCC(N)=O)C(=O)N[C@@H](CO)C(=O)N1CCC[C@H]1C(=O)N[C@@H](CO)C(=O)N[C@@H](CO)C(=O)NCC(=O)N[C@@H](C)C(=O)N1CCC[C@H]1C(=O)N1CCC[C@H]1C(=O)N1CCC[C@H]1C(=O)N[C@@H](CO)C(N)=O)C(C)C)[C@@H](C)CC [Compound 270] (H-[NMeY][Aib]EGTFISDYSI[Aib]LDRK([AEEA-AEEA-γGlu-γGlu-C17 diacid])AQ[Aib]NFVNWLLAQSPSSGAPPPS-NH2) | ≥ 7.5 | – | –
